Blank lines part the entries; values can stand above or below the compound they belong to.
How the values were obtained:
[1] = Inclusion efficiency for bendamustine in VPG (ion exchanger separation of free drug); format: physicochemical; settings: direct inclusion in VPG by speed mixing, 3540 rpm 30 min; ± SD
Method: (§1) Within the context of the present invention, the “enclosure efficiency” is the ratio (percentage) of the amount of the measured substance (e.g., of an active substance) which is included in the lipid-based nanoparticles, associated to the nanoparticles or incorporated into the nanoparticles, to the total amount of the respective substance used for the formulation.
Into a 25 ml injection bottle (outer diameter: 36 mm), 1.0 g of the mixture of hydrogenated egg phosphatidylcholine and cholesterol (55/45 mole %) existing as a solid solution as well as 1.0 g of glass beads (diameter 1 mm) was weighed under sterile conditions. The bottle was flange-sealed. Through the septum, 1.5 ml of a Bendamustin® hydrochloride solution (containing 9.09 mg of bendamustine/ml; the solution was prepared by reconstitution from Bendamustin of Ribosepharm; thus, 0.9% NaCl solution was injected into the medicine bottle with the lyophilized medicament) was added. […] Samples of the VPGs containing bendamustine were taken, and the inclusion efficiency for bendamustine was determined to be 40.6±3.08% (SD) (separation of the free bendamustine: by ion exchanger, Moog et al., Cancer Chem Pharmacol 49: 356 (2002), bendamustine analytics: Maas, B. et al., Pharmazie 49: 775-777 (1994)). The mean size of the vesicles was determined by PCS to be 62.5±3.5 nm (SD) (n: 8).

[2] = Inclusion efficiency for gemcitabine in VPG; format: physicochemical; settings: for Inclusion efficiency: then passive loading 60° C. 2 hours
Method: as §1
Into a 25 ml injection bottle (outer diameter: 36 mm), 1.48 g of the mixture of hydrogenated egg phosphatidylcholine and cholesterol (55/45 mole %) existing as a solid solution as well as 3 g of glass beads (diameter 1 mm) was weighed under sterile conditions. The bottle was flange-sealed. Through the septum, 500 μl of a Gemzar® solution (containing 38.02 mg of gemcitabine/ml; Gemzar® is the name of the gemcitabine-containing medicament of the company Lilly, one injection bottle contains 200 mg of gemcitabine (lyophilized) and is reconstituted with 5 ml of 0.9% NaCl) as well as 2.22 g of 5% mannitol solution was added. The mixture was subjected to speed mixing at 3540 rpm for 20 minutes to form gemcitabine-containing VPG.
Into a 25 ml injection bottle, 3.7 g of VPG (660 mM lipid, mixture of hydrogenated egg phosphatidylcholine and cholesterol (55/45 mole %), existing as a solid solution) was charged, and the bottle was centrifuged briefly, so that a uniformly thick layer of VPG formed at the bottom of the vessel. To this layer, 500 μl of a Gemzar® solution was added (contains 38.02 mg of gemcitabine/ml; Gemzar® is the name of the gemcitabine-containing medicament of the company Lilly, one injection bottle contains 200 mg of gemcitabine (lyophilized) and is reconstituted with 5.0 ml of 0.9% NaCl). […]
Subsequently, the VPG-gemcitabine mixture as well as a comparative sample in which gemcitabine was incorporated into the VPG by two shaking steps for 10 and 5 minutes, respectively, with an incubation break for 1 hour between, incubated at 60° C. for 2 hours for passive loading, the VPG was subsequently redispersed, and the inclusion efficiency for gemcitabine was determined.

[3] = empty VPG by high-pressure homogenization, gemcitabine incorporated by passive loading (EP 1 087 752); cited from earlier work
[4] = Inclusion efficiency for trypan blue in liposomes (absorption spectroscopy of supernatant); format: physicochemical; settings: EPC3/cholesterol 55/45; 3540 rpm 10 min
Method: Within the context of the present invention, the “enclosure efficiency” is the ratio (percentage) of the amount of the measured substance (e.g., of an active substance) which is included in the lipid-based nanoparticles, associated to the nanoparticles or incorporated into the nanoparticles, to the total amount of the respective substance used for the formulation. Into two glass vials (diameter 10 mm), 100 mg each of glass beads (diameter 1 mm) and 50 mg each of the mixture of hydrogenated egg phosphatidylcholine and cholesterol (55/45 mole %) existing as a solid solution was weighed. Into one vial, 75 μl of a trypan blue solution (1000 μl of commercially available trypan blue solution (0.4%) plus 30 ml of 25% ammonia solution) was pipetted. Into the second vial, 75 μl of 0.9% NaCl solution was added. The closed vials were subjected to speed mixing at 3540 rpm for 10 minutes each. The liposome gel loaded with trypan blue solution was redispersed with 250 μl of NaCl solution. The liposome gel prepared with saline only was redispersed with 175 μl of NaCl solution plus 75 μl of trypan blue solution. […] In the supernatant, the trypan blue concentration was subsequently determined by absorption spectroscopy, and the inclusion efficiency was calculated. […]

[5] = Mean size of liposomes / lipid-based nanoparticles by photon correlation spectroscopy (PCS); format: physicochemical
[6] = Inclusion efficiency for RNA-Cy3 in liposomes (fluorescence spectroscopy of supernatant); format: physicochemical; settings: 1 μM RNA-Cy3, 3540 rpm 10 min
Method: as §1
Into two glass vials (diameter 10 mm), 100 mg each of glass beads (diameter 1 mm) and 50 mg each of the mixture of hydrogenated egg phosphatidylcholine and cholesterol (55/45 mole %) existing as a solid solution was weighed. Into one vial, 75 μl of a 1 μM RNA-Cy3 solution (RNA: 27mer; 5′-GGA GCU CGC U T**C GGC GAG GUC GUG CCA-3′; T**=thymidine-C6-amino-NHS-Cy3; Cy3: fluorescence dye; Qiagen) was pipetted. Into the second vial, 75 μl of NaCl solution was added. The closed vials were subjected to speed mixing at 3540 rpm for 10 minutes each. The liposome gel loaded with RNA-Cy3 solution was redispersed with 250 μl of NaCl solution. […] In the supernatant, the relative concentrations of fluorescence-labeled RNA were subsequently determined by fluorescence spectroscopy (em: 565, ex; 515 nm), and the inclusion efficiency for RNA-Cy3 was calculated by dividing the values by one another (60.1%). The mean size of the redispersed vesicles was determined by means of PCS to be 127.8 nm. […]

Compound: Cn1c(CCCC(=O)O)nc2cc(N(CCCl)CCCl)ccc21 [bendamustine]
inclusion efficiency for bendamustine [1]: 40.6±3.08%

inclusion efficiency for gemcitabine ([2]; direct inclusion in VPG by speed mixing, 3540 rpm 20 min): 80.7% | Inclusion efficiency ([2]; gemcitabine incorporated into prefabricated VPG by shaking (10 and 5 min)): 47% | Inclusion efficiency ([2]; gemcitabine incorporated into prefabricated VPG by speed mixing (0.5 min)): 44%
Compound: Nc1ccn([C@@H]2O[C@H](CO)[C@@H](O)C2(F)F)c(=O)n1 [gemcitabine]
inclusion efficiency for passive loading [3]: 43-47%

inclusion efficiency for trypan blue in liposomes by speed mixing [4]: 51%
Compound: Cc1cc(-c2ccc(/N=N/c3c(S(=O)(=O)O)cc4cc(S(=O)(=O)O)cc(N)c4c3O)c(C)c2)ccc1/N=N/c1c(S(=O)(=O)O)cc2cc(S(=O)(=O)O)cc(N)c2c1O [trypan blue]

Compound: RNA-Cy3: fluorescence-labeled RNA 27mer 5′-GGA GCU CGC U T**C GGC GAG GUC GUG CCA-3′, T**=thymidine-C6-amino-NHS-Cy3 (Qiagen) (chain 1 GGAGCUCGCUT; chain 2 CGGCGAGGUCGUGCCA; Cy3 label on thymidine-C6-amino, chemistry not fully specified)
mean size of the redispersed vesicles ([5]; RNA-Cy3-loaded negatively charged liposomes (hydrogenated egg PC/cholesterol/DPPG 46/33/20)): 238.1 nm | mean size of the redispersed vesicles ([5]; RNA-Cy3-loaded neutral liposomes (hydrogenated egg PC/cholesterol 55/45)): 127.8 nm | inclusion efficiency for RNA-Cy3 ([6]; negatively charged liposomes (hydrogenated egg PC/cholesterol/DPPG 46/33/20)): 82.9% | inclusion efficiency for RNA-Cy3 ([6]; neutral liposomes (hydrogenated egg PC/cholesterol 55/45)): 60.1%
